According to patent US12441768B2, “Compositions and methods for treating endometriosis” (EndoMet Biosciences, Inc., priority 2018, dated 2025):
Where a SMILES comes first, the peptide text is derived from it. The star is where a group is joined. Bn = c1ccc(C*)cc1

Key:
[1] = % Viability non-Wnt responsive cells
β-catenin = target: T1, β-catenin (Homo sapiens, UniProt P35222); assay: KD50 measurement using competitive fluorescence polarization (FP) with labelled TCF4; assay type: binding; details: fluorescence polarization, β-catenin; for Kd: read-out: β-Cat FP KD
T1 sequence (P35222 1-781): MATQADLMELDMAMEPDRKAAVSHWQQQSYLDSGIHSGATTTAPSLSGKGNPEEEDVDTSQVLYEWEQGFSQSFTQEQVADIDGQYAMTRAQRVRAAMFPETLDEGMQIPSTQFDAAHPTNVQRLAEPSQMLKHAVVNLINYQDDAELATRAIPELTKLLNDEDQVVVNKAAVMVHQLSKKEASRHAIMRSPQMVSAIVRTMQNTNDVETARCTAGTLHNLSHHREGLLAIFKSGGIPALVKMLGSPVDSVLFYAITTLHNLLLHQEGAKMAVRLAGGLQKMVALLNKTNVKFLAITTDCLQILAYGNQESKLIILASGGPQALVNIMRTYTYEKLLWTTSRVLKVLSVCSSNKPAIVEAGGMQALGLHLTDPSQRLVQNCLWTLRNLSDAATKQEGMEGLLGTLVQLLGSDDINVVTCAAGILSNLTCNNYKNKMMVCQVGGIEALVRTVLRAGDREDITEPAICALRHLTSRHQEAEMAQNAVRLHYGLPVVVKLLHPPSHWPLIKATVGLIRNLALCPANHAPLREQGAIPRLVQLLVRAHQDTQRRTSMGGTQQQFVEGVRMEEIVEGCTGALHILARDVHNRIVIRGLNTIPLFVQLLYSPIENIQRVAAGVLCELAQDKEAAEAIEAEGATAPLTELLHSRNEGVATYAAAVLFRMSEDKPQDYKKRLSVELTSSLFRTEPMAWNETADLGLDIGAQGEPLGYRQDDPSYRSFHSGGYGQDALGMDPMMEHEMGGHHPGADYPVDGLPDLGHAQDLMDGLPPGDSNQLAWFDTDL
Outline: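 5 nM labelled TCF4 was combined with 100 nM β-catenin at room temperature, then inhibitor was titrated in serial dilutions from 10 nM to 30 uM. Polarization was read at excitation 470 nm, emission 520 nm; displacement lowers the signal. Three independent experiments.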

[2] = target: Wnt-responsive promoter (TCF/LEF); assay: Wnt-dependent luciferase reporter assay; assay type: cell-based, murine
Outline: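 EC50 (uM) derived from inhibition of luminescence in Wnt3a-stimulated murine 3T3 cells expressing luciferase under a TCF/LEF promoter, with peptides added across a concentration range and vehicle as control.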

For `CC[C@H](C)[C@H](NC(=O)[C@H](C)NC(=O)[C@H](Cc1ccccc1)NC(=O)[C@H](Cc1c[nH]c2ccccc12)NC(=O)[C@@H](N)CCSC)C(=O)N[C@@H](CO)C(=O)N[C@@H](Cc1ccccc1)C(=O)N[C@@H](Cc1c[nH]c2ccccc12)C(=O)NCC(=O)O` [compound 157] (H-MWFAISFWG-OH), the viability [1] was 99.9%, the Kd (β-catenin) was > 30 µM and the EC50 [2] was < 7.5 µM.
With `CC[C@H](C)[C@H](NC(=O)[C@H](CC(C)C)NC(=O)[C@H](Cc1ccccc1)NC(=O)[C@H](Cc1c[nH]c2ccccc12)NC(C)=O)C(=O)N[C@@H](C)C(=O)N[C@@H](Cc1ccccc1)C(=O)N[C@@H](Cc1c[nH]c2ccccc12)C(=O)NCC(=O)O` [compound 196] (Ac-WFLIAFWG-OH) the viability [1] was 105%, the “β-Cat FP Hill slope” value (β-catenin) was 2.58 and the Kd (β-catenin) was 0.4 to 1 µM. For the same compound, the EC50 [2] was < 7.5 µM.
For `CC[C@H](C)[C@H](NC(=O)[C@H](CC(C)C)NC(=O)[C@@H](NC(=O)[C@H](Cc1c[nH]c2ccccc12)NC(=O)[C@@H](N)CCSC)[C@@H](C)CC)C(=O)N[C@@H](COCc1ccccc1)C(=O)N[C@@H](Cc1ccccc1)C(=O)N[C@@H](Cc1c[nH]c2ccccc12)C(=O)NCC(=O)O` [compound 146] (H-MWILIS(Bn)FWG-OH), the viability [1] was 99.1%, the Kd (β-catenin) was > 30 µM and the EC50 [2] was > 30 µM.
With `CC[C@H](C)[C@H](NC(=O)[C@H](CC(C)C)NC(=O)[C@H](Cc1ccccc1)NC(=O)[C@H](Cc1c[nH]c2ccccc12)NC(=O)[C@H](CCCCN)NC(=O)[C@H](CCCNC(=N)N)NC(=O)[C@H](CO)NC(=O)[C@@H](N)CCSC)C(=O)N[C@@H](CO)C(=O)N[C@@H](Cc1ccccc1)C(=O)N[C@@H](Cc1c[nH]c2ccccc12)C(N)=O` [compound 87] (H-MSRKWFLISFW-NH2) the viability [1] was 114%, the Kd (β-catenin) was > 30 µM and the EC50 [2] was > 30 µM.
In the case of `CC[C@H](C)[C@@H]1NC(=O)[C@H](CC(C)C)NC(=O)[C@H](Cc2ccccc2)NC(=O)[C@H](Cc2c[nH]c3ccccc23)NC(=O)[C@@H](NC(C)=O)CCCCNC(=O)C[C@@H](C(=O)O)NC(=O)[C@H](Cc2c[nH]c3ccccc23)NC(=O)[C@H](C)NC(=O)[C@H](CS)NC1=O` [compound 169] (HELM PEPTIDE1{[ac].K.W.F.L.I.C.A.W.D}$PEPTIDE1,PEPTIDE1,2:R3-10:R3$$$V2.0), the viability [1] is reported as 93.5%, the “β-Cat FP Hill slope” value (β-catenin) is reported as 0.7 and the Kd (β-catenin) is reported as 1 to 10 µM. For the same compound, the EC50 [2] was < 7.5 µM.
For `CCC[C@H](N)C(=O)N[C@@H](Cc1c[nH]c2ccccc12)C(=O)N[C@@H](Cc1ccccc1)C(=O)N[C@@H](CC(C)C)C(=O)N[C@H](C(=O)N[C@@H](CS)C(=O)N[C@@H](Cc1ccccc1)C(=O)N[C@@H](Cc1c[nH]c2ccccc12)C(=O)NCC(=O)O)[C@@H](C)CC` [compound 141] (HELM PEPTIDE1{[Nva].W.F.L.I.C.F.W.G}$$$$V2.0), the viability [1] was 100%, the Kd (β-catenin) was > 30 µM and the EC50 [2] was 7.5 to 15 µM.
For `CC[C@H](C)[C@H](NC(=O)[C@H](CC(C)C)NC(=O)[C@@H](NC(=O)[C@H](Cc1c[nH]c2ccccc12)NC(=O)[C@@H](N)Cc1c[nH]cn1)[C@@H](C)CC)C(=O)N[C@@H](CO)C(=O)N[C@@H](Cc1ccccc1)C(=O)N[C@@H](Cc1c[nH]c2ccccc12)C(=O)NCC(=O)O` [compound 126] (H-HWILISFWG-OH), the viability [1] was 111%, the “β-Cat FP Hill slope” value (β-catenin) was 0.99 and the Kd (β-catenin) was < 0.4 µM. For the same compound, the EC50 [2] was < 7.5 µM.
For `CC[C@H](C)[C@H](NC(=O)[C@H](CC(C)C)NC(=O)[C@H](Cc1ccccc1)NC(=O)[C@H](Cc1c[nH]c2ccccc12)NC(=O)[C@@H](N)CCSC)C(=O)N[C@@H](CO)C(=O)N[C@@H](CO)C(=O)N[C@@H](Cc1c[nH]c2ccccc12)C(=O)O` [compound 96] (H-MWFLISSW-OH), the viability [1] was 97.3%, the “β-Cat FP Hill slope” value (β-catenin) was 0.7 and the Kd (β-catenin) was 10 to 30 µM. For the same compound, the EC50 [2] was 7.5 to 15 µM.
In the case of `CC[C@H](C)[C@H](NC(=O)[C@H](CC(C)C)NC(=O)[C@H](Cc1ccccc1)NC(=O)[C@H](Cc1c[nH]c2ccccc12)NC(=O)[C@H](CCSC)NC(=O)[C@H](CCCNC(=N)N)NC(=O)[C@@H](NC(=O)[C@@H](N)CCSC)[C@@H](C)O)C(=O)N[C@@H](CO)C(=O)N[C@@H](Cc1ccccc1)C(=O)N[C@@H](Cc1c[nH]c2ccccc12)C(N)=O` [compound 73] (H-MTRMWFLISFW-NH2), the viability [1] is reported as 97.3%, the Kd (β-catenin) is reported as > 30 µM and the EC50 [2] is reported as > 30 µM.
In the case of `CC[C@H](C)[C@H](NC(=O)[C@H](CC(C)C)NC(=O)[C@H](Cc1ccccc1)NC(=O)[C@H](Cc1c[nH]c2ccccc12)NC(=O)[C@H](CCCNC(=N)N)NC(=O)[C@H](CCCNC(=N)N)NC(=O)[C@H](CO)NC(=O)[C@@H](N)CCSC)C(=O)N[C@@H](CO)C(=O)N[C@@H](Cc1ccccc1)C(=O)N[C@@H](Cc1c[nH]c2ccccc12)C(N)=O` [compound 75] (H-MSRRWFLISFW-NH2), the viability [1] is reported as 99.2%, the Kd (β-catenin) is reported as > 30 µM and the EC50 [2] is reported as > 30 µM.
For `CC[C@H](C)[C@H](NC(=O)[C@H](CC(C)C)NC(=O)[C@H](Cc1ccccc1)NC(=O)[C@@H](N)Cc1c[nH]c2ccccc12)C(=O)N[C@@H](CO)C(=O)N[C@@H](Cc1ccccc1)C(=O)N[C@@H](Cc1c[nH]c2ccccc12)C(N)=O` [compound 98] (H-WFLISFW-NH2), the viability [1] was 96%, the “β-Cat FP Hill slope” value (β-catenin) was 1.02 and the Kd (β-catenin) was 1 to 10 µM. The EC50 [2] was > 30 µM.
In the case of `CC[C@H](C)[C@H](NC(=O)[C@H](CC(C)C)NC(=O)[C@H](Cc1ccccc1)NC(=O)[C@H](Cc1c[nH]c2ccccc12)NC(=O)[C@@H](N)CCSC)C(=O)N[C@@H](CS)C(=O)N[C@@H](Cc1cncn1C)C(=O)N[C@@H](Cc1c[nH]c2ccccc12)C(=O)NCC(=O)O` [compound 135] (HELM PEPTIDE1{M.W.F.L.I.C.[Cn1cncc1C[C@H](N[*:1])C(=O)[*:2]].W.G}$$$$V2.0), the viability [1] is reported as 107%, the “β-Cat FP Hill slope” value (β-catenin) is reported as 0.7 and the EC50 [2] is reported as 7.5 to 15 µM.
For `CC[C@H](C)[C@H](NC(=O)[C@H](CC(C)C)NC(=O)[C@@H](NC(=O)[C@H](Cc1c[nH]c2ccccc12)NC(=O)[C@H](CCSC)NCc1ccccc1)[C@@H](C)CC)C(=O)N[C@@H](CO)C(=O)N[C@@H](Cc1ccccc1)C(=O)N[C@@H](Cc1c[nH]c2ccccc12)C(=O)NCC(=O)O` [compound 223] (HELM PEPTIDE1{[CSCC[C@H](NCc1ccccc1)C(=O)[*:2]].W.I.L.I.S.F.W.G}$$$$V2.0), the viability [1] was 101%, the “β-Cat FP Hill slope” value (β-catenin) was 0.7 and the EC50 [2] was < 7.5 µM.
In the case of `CC[C@H](C)[C@H](NC(=O)[C@H](CC(C)C)NC(=O)[C@H](Cc1ccccc1)NC(=O)[C@H](C)NC(=O)[C@@H](N)CCSC)C(=O)N[C@@H](CO)C(=O)N[C@@H](Cc1ccccc1)C(=O)N[C@@H](Cc1c[nH]c2ccccc12)C(=O)NCC(=O)O` [compound 210] (H-MAFLISFWG-OH), the viability [1] is reported as 96.4%, the “β-Cat FP Hill slope” value (β-catenin) is reported as 0.6 and the Kd (β-catenin) is reported as 1 to 10 µM. For the same compound, the EC50 [2] was < 7.5 µM.
For `CC[C@H](C)[C@H](NC(=O)[C@H](CC(C)C)NC(=O)[C@@H](NC(=O)[C@H](Cc1c[nH]c2ccccc12)NC(=O)[C@@H](N)Cc1c[nH]c2ccccc12)[C@@H](C)CC)C(=O)N[C@@H](CO)C(=O)N[C@@H](Cc1ccccc1)C(=O)N[C@@H](Cc1c[nH]c2ccccc12)C(=O)NCC(=O)O` [compound 127] (H-WWILISFWG-OH), the viability [1] was 120%, the “β-Cat FP Hill slope” value (β-catenin) was 1 and the Kd (β-catenin) was 0.4 to 1 µM. For the same compound, the EC50 [2] was 7.5 to 15 µM.
For `CC[C@H](C)[C@H](NC(=O)[C@H](CC(C)C)NC(=O)[C@H](C)NC(=O)[C@H](Cc1c[nH]c2ccccc12)NC(=O)[C@@H](N)CCSC)C(=O)N[C@@H](CO)C(=O)N[C@@H](Cc1ccccc1)C(=O)N[C@@H](Cc1c[nH]c2ccccc12)C(=O)NCC(=O)O` [compound 156] (H-MWALISFWG-OH), the viability [1] was 102%, the Kd (β-catenin) was > 30 µM and the EC50 [2] was < 7.5 µM.
For `CC[C@H](C)[C@H](NC(=O)[C@H](CC(C)C)NC(=O)[C@H](Cc1ccccc1)NC(=O)[C@H](Cc1c[nH]c2ccccc12)NC(=O)[C@@H](N)CCSC)C(=O)N[C@@H](CO)C(=O)N[C@@H](Cc1ccccc1)C(=O)N[C@@H](Cc1c[nH]c2ccccc12)C(=O)O` [compound 112] (H-MWFLISFW-OH), the viability [1] was 103%, the “β-Cat FP Hill slope” value (β-catenin) was 1.82 and the Kd (β-catenin) was 0.4 to 1 µM. For the same compound, the EC50 [2] was < 7.5 µM.
With `CC[C@H](C)[C@H](NC(=O)[C@H](CC(C)C)NC(=O)[C@H](Cc1ccccc1)NC(=O)[C@H](Cc1c[nH]c2ccccc12)NC(=O)[C@H](Cc1c[nH]cn1)NC(=O)[C@H](CCCNC(=N)N)NC(=O)[C@H](CO)NC(=O)[C@@H](N)CCCCN)C(=O)N[C@@H](CO)C(=O)N[C@@H](Cc1ccccc1)C(=O)N[C@@H](Cc1c[nH]c2ccccc12)C(N)=O` [compound 94] (H-KSRHWFLISFW-NH2) the viability [1] was 118%, the Kd (β-catenin) was > 30 µM and the EC50 [2] was > 30 µM.
